Read-outs that look alike come from different tables or passages of the source.
Test system: AP-1
Experiment: Cellular transrepression assay (AP-1 luciferase reporter in A549 cells, PMA activated)
Format: cell-based
Details: 10 ng/ml PMA; for EC50: read-out: AP-1 (EC50, nM) (measured in cellular transrepression assay); for Emax: read-out: AP-1 Max % inhibition (measured in cellular transrepression assay)
Description: Cellular Transrepressional Assay
To measure the ability of test molecules to inhibit AP-1 induced transcriptional activity we utilized an A549 cell which was stably transfected with a plasmid containing 7×AP-1 DNA binding sites (pAP-1-Luc plasmid, Stratagene Co. La Jolla, Calif.) followed by the gene for luciferase. Cells were activated with 10 ng/ml of phorbol myristic acid (PMA) plus or minus test molecules for 7 hours. After 7 hours a luciferase reagent was added to measure luciferase enzymatic activity in the cell. After a 10 minute incubation of luciferase reagent with cells, luminescence was measured in a TopCount luminescence counter. Repression of AP-1 activity was calculated as the percentage decrease in the signal induced by PMA alone. Test molecules were analyzed in the concentration range from 0.1 nM to 40 μM. EC50s were determined by using standard curve fitting methods such as Excel fit (Microsoft Co.). An EC50 is the test molecule concentration at which there is a 50% repression of the maximal inhibition of transcription, i.e. a 50% reduction of AP-1 activity.

Row | Structure (SMILES) | EC50 (7 h) | EC50 (7 hours) | Emax (7 h) | AP-1 Max % inhibition (measured in cellular transrepression assay) (7 hours)
1 | CCN(C)C(=O)c1ccc(-c2ccc3c(n2)Oc2ncccc2C3C(C)(C)C(=O)Nc2nncs2)cc1 (single isomer, unassigned) [Example 9] | 66.2 nM |  | 55.4% | 
2 | CN(C)C(=O)c1ccc(-c2ccc3c(n2)Oc2cnccc2C3C(C)(C)C(=O)Nc2nncs2)cc1 (stereo not drawn) [Example 1, 4-(5-(1,1-dimethyl-2-oxo-2-(1,3,4-thiadiazol-2-ylamino)ethyl)-5H-pyrido[4′,3′:5,6]pyrano[2,3-b]pyridin-2-yl)-N,N-dimethylbenzamide] | 255 nM |  | 29.3% | 
3 | Cc1ccc2c(n1)Oc1nc(-c3ccc(C(=O)N(C)C)cc3)ccc1C2C(C)(C)C(=O)Nc1nncs1 (stereo not drawn) [Example 10, 4-(5-(1,1-dimethyl-2-oxo-2-(1,3,4-thiadiazol-2-ylamino)ethyl)-8-methyl-5H-pyrido[3′,2′:5,6]pyrano[2,3-b]pyridin-2-yl)-N,N-dimethylbenzamide] | 189 nM |  | 39% | 
4 | Cc1ccc2c(n1)Oc1nc(-c3ccc(SC(C)C)cc3)ccc1[C@H]2C(C)(C)C(=O)Nc1nncs1 [Example 27] | 41.9 nM |  | 32.4% | 
5 | CCN(C)C(=O)c1ccc(-c2ccc3c(n2)Oc2ncccc2C3C(C)(C)C(=O)Nc2nncs2)cc1 (stereo not drawn) [Example 4] | 197 nM |  | 46.6% | 
6 | CCN(C)C(=O)c1ccc(-c2ccc3c(n2)Oc2nc(C)ccc2[C@@H]3C(C)(C)C(=O)Nc2nncs2)cc1 [Example 22] | 81.9 nM |  | 59.3% | 
7 | CN(C)C(=O)c1ccc(-c2ccc3c(n2)Oc2ncccc2C3C(C)(C)C(=O)Nc2nncs2)cc1 (stereo not drawn) [Example 3, 4-(5-(1,1-dimethyl-2-oxo-2-(1,3,4-thiadiazol-2-ylamino)ethyl)-5H-pyrido[3′,2′:5,6]pyrano[2,3-b]pyridin-2-yl)-N,N-dimethylbenzamide] | 189 nM |  | 38.6% | 
8 | CCN(C)C(=O)c1ccc(-c2ccc3c(n2)Oc2nc(C)ccc2C3C(C)(C)C(=O)Nc2nncs2)cc1 (stereo not drawn) [Example 14, 4-(5-(1,1-dimethyl-2-oxo-2-(1,3,4-thiadiazol-2-ylamino)ethyl)-8-methyl-5H-pyrido[3′,2′:5,6]pyrano[2,3-b]pyridin-2-yl)-N-ethyl-N-methylbenzamide] | 97.2 nM |  | 58% | 
9 | CCN(C)C(=O)c1ccc(-c2ccc3c(n2)Oc2nc(C)ccc2[C@@H]3C(C)(C)C(=O)Nc2nncs2)cc1F [Example 21] | 166 nM |  | 49.7% | 
10 | Cc1ccc2c(n1)Oc1nc(-c3ccc(C(=O)N(C)C)cc3)ccc1[C@H]2C(C)(C)C(=O)Nc1nnc(C)s1 [Example 12] | 297 nM |  | 26.6% | 
11 | CN(C)C(=O)c1ccc(-c2ccc3c(n2)Oc2ncccc2C3C(C)(C)C(=O)Nc2nncs2)cc1 (single isomer, unassigned) [Example 8] | 194 nM |  | 45.2% | 
12 | CCN(C)C(=O)c1ccc(-c2ccc3c(n2)Oc2nc(C)ccc2C3C(C)(C)C(=O)Nc2nncs2)cc1F (stereo not drawn) [Example 18] | 52 nM |  | 47.8% | 
13 | Cc1ccc2c(n1)Oc1nc(-c3ccc(C(=O)N4CCCC4)cc3)ccc1[C@H]2C(C)(C)C(=O)Nc1nncs1 [Example 31] | 376 nM |  | 49.3% | 
14 | Cc1ccc2c(n1)Oc1nc(-c3ccc(C(=O)N4CCCC4)cc3)ccc1C2C(C)(C)C(=O)Nc1nncs1 (stereo not drawn) [Example 16] | 541 nM |  | 40.2% | 

Now from value to compound, other results behind:

Row | EC50 (7 h) | EC50 (7 hours) | Structure (SMILES) | Emax (7 h) | AP-1 Max % inhibition (measured in cellular transrepression assay) (7 hours)
15 | 470 nM |  | Cc1ccc2c(n1)Oc1nc(-c3ccc(C(=O)N4CCC4)cc3)ccc1[C@H]2C(C)(C)C(=O)Nc1nncs1 [Example 38] | 41.9% | 
16 | 47.5 nM |  | Cc1nnc(NC(=O)C(C)(C)C2c3ccc(Cl)nc3Oc3nc(-c4ccc(C(=O)N5CCOCC5)cc4)ccc32)s1 (stereo not drawn) [Example 61] | 49.8% | 
17 | 359 nM |  | Cc1ccc2c(n1)Oc1nc(-c3ccc(C(=O)N(C)C4CC4)cc3)ccc1[C@H]2C(C)(C)C(=O)Nc1nncs1 [Example 41] | 39.2% | 
18 | 98 nM |  | CCN(C)C(=O)c1ccc(-c2ccc3c(n2)Oc2nc(C)ccc2[C@@H]3C(C)(C)C(=O)Nc2nnc(C(=O)NC3CCC3)s2)cc1 [Example 49] | 66.3% | 
19 | 53 nM |  | CN(C)C(=O)c1ccc(-c2ccc3c(n2)Oc2nc(N(C)C)ccc2C3C(C)(C)C(=O)Nc2nncs2)cc1 (stereo not drawn) [Example 67, 4-(8-(dimethylamino)-5-(1,1-dimethyl-2-oxo-2-(1,3,4-thiadiazol-2-ylamino)ethyl)-5H-pyrido[3′,2′:5,6]pyrano[2,3-b]pyridin-2-yl)-N,N-dimethylbenzamide] | 57.9% | 
20 | 95.3 nM |  | Cc1nnc(NC(=O)C(C)(C)C2c3ccc(-c4ccc(C(=O)N(C)C)cc4)nc3Oc3nc(N(C)C)ccc32)s1 (stereo not drawn) [Example 68, 4-(8-(dimethylamino)-5-(1,1-dimethyl-2-((5-methyl-1,3,4-thiadiazol-2-yl)amino)-2-oxoethyl)-5H-pyrido[3′,2′:5,6]pyrano[2,3-b]pyridin-2-yl)-N,N-dimethylbenzamide] | 46.3% | 
21 | 908 nM |  | CCN(C)C(=O)c1ccc(-c2ccc3c(n2)Oc2nc(C)ccc2[C@@H]3C(C)(C)C(=O)Nc2nnc(C(=O)N3CCOCC3)s2)cc1 [Example 50] | 35.4% | 
22 | 58.1 nM |  | CCN(C)C(=O)c1ccc(-c2ccc3c(n2)Oc2nc(Cl)ccc2C3C(C)(C)C(=O)Nc2nnc(C)s2)cc1 (stereo not drawn) [Example 58, 4-(8-chloro-5-(1,1-dimethyl-2-((5-methyl-1,3,4-thiadiazol-2-yl)amino)-2-oxoethyl)-5H-pyrido[3′,2′:5,6]pyrano[2,3-b]pyridin-2-yl)-N-ethyl-N-methylbenzamide] | 57.7% | 
23 | 759 nM |  | CCN(C)C(=O)c1ccc(-c2ccc3c(n2)Oc2nc(C)ccc2[C@@H]3C(C)(C)C(=O)Nc2nnc(C(=O)NC)s2)cc1 [Example 46] | 36% | 
24 | 183 nM |  | CCN(C)C(=O)c1ccc(-c2ccc3c(n2)Oc2nc(C)ccc2[C@@H]3C(C)(C)C(=O)Nc2nnc(C(=O)NC(C)C)s2)cc1 [Example 86] | 61.6% | 
25 |  | 87 nM | Cc1nnc(NC(=O)C(C)(C)C2c3ccc(Cl)nc3Oc3nc(-c4ccc(C(=O)N5CCOCC5)cc4)ccc32)s1 (stereo not drawn) [Example 63] |  | 54.57%
26 | 352 nM |  | CN(C)C(=O)c1ccc(-c2ccc3c(n2)Oc2nc(Cl)ccc2C3C(C)(C)C(=O)Nc2nnc(C(=O)NC3CC3)s2)cc1 (stereo not drawn) [Example 62] | 59.5% | 
27 | 167 nM |  | Cc1ccc2c(n1)Oc1nc(-c3ccc(C(=O)N4CCOCC4)cc3)ccc1[C@H]2C(C)(C)C(=O)Nc1nnc(C2CC2)s1 [Example 93, N-(5-cyclopropyl-1,3,4-thiadiazol-2-yl)-2-methyl-2-((5 S)-2-methyl-8-(4-(4-morpholinylcarbonyl)phenyl)-5H-pyrido[3′,2′:5,6]pyrano[2,3-b]pyridin-5-yl)propanamide] | 44.3% | 
28 | 194 nM |  | CN(C)C(=O)c1ccc(-c2ccc3c(n2)Oc2nc(N(C)C)ccc2C3C(C)(C)C(=O)Nc2nncs2)cc1F (stereo not drawn) [Example 73, 4-(8-(dimethylamino)-5-(1,1-dimethyl-2-oxo-2-(1,3,4-thiadiazol-2-ylamino)ethyl)-5H-pyrido[3′,2′:5,6]pyrano[2,3-b]pyridin-2-yl)-2-fluoro-N,N-dimethylbenzamide] | 43.4% | 
29 | 67.2 nM |  | CCN(C)C(=O)c1ccc(-c2ccc3c(n2)Oc2nc(N(C)C)ccc2C3C(C)(C)C(=O)Nc2nnc(C)s2)cc1 (stereo not drawn) [Example 71] | 48.6% | 
30 | 21 nM |  | Cc1ccc2c(n1)Oc1nc(-c3ccc(C(C)(C)O)cc3)ccc1[C@H]2C(C)(C)C(=O)Nc1nncs1 [Example 89] | 46.9% | 

Source: US8304539B2, “Fused heteroaryl modulators of glucocorticoid receptor, AP-1, and/or NF-κB activity and use thereof” (Bristol-Myers Squibb Company, priority 2008, dated 2012)
